# Reference: ChEMBL document CHEMBL3627608, “Crystal structures of human RIP2 kinase catalytic domain complexed with ATP-competitive inhibitors: Foundations for understanding inhibitor selectivity” (Bioorg Med Chem, 2015)
# Experiments:
# [1] = target: Myosin light chain kinase 2, skeletal/cardiac muscle (Homo sapiens) (UniProt Q9H1R3); assay: Inhibition of MLCK2 (unknown origin) at 10 uM after 120 mins P33 radiolabeled kinase activity assay
# [2] = target: T1, Testis-specific serine/threonine-protein kinase 1 (Homo sapiens) (UniProt Q9BXA7); assay: Inhibition of STK22D (unknown origin) at 10 uM after 120 mins P33 radiolabeled kinase activity assay
# T1 sequence (whole entry): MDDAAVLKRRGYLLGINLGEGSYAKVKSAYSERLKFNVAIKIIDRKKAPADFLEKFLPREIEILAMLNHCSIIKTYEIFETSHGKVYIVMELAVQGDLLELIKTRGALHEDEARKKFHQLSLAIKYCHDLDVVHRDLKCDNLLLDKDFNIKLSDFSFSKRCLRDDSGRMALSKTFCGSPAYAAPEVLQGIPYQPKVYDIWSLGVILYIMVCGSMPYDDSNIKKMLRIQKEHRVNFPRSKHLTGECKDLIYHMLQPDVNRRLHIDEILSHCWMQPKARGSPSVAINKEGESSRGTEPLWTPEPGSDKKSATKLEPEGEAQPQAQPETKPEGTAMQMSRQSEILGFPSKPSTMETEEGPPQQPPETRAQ
# [3] = target: T2, Mitogen-activated protein kinase 12 (Homo sapiens) (UniProt P53778); assay: Inhibition of P38gamma (unknown origin) at 10 uM after 120 mins P33 radiolabeled kinase activity assay
# T2 sequence (whole entry): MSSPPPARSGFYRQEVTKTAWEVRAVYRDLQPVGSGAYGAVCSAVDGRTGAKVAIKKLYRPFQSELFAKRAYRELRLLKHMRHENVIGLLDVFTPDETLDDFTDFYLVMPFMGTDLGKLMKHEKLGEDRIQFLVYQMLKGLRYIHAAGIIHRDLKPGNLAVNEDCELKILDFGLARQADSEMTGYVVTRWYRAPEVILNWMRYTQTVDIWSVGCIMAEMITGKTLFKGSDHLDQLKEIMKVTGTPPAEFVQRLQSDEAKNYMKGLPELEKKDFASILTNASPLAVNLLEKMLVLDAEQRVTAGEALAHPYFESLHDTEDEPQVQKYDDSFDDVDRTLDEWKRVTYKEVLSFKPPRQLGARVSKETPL
# [4] = target: T3, Kinase suppressor of Ras 2 (Homo sapiens) (UniProt Q6VAB6); assay: Inhibition of KSR2 (unknown origin) at 10 uM after 120 mins P33 radiolabeled kinase activity assay
# T3 sequence (whole entry): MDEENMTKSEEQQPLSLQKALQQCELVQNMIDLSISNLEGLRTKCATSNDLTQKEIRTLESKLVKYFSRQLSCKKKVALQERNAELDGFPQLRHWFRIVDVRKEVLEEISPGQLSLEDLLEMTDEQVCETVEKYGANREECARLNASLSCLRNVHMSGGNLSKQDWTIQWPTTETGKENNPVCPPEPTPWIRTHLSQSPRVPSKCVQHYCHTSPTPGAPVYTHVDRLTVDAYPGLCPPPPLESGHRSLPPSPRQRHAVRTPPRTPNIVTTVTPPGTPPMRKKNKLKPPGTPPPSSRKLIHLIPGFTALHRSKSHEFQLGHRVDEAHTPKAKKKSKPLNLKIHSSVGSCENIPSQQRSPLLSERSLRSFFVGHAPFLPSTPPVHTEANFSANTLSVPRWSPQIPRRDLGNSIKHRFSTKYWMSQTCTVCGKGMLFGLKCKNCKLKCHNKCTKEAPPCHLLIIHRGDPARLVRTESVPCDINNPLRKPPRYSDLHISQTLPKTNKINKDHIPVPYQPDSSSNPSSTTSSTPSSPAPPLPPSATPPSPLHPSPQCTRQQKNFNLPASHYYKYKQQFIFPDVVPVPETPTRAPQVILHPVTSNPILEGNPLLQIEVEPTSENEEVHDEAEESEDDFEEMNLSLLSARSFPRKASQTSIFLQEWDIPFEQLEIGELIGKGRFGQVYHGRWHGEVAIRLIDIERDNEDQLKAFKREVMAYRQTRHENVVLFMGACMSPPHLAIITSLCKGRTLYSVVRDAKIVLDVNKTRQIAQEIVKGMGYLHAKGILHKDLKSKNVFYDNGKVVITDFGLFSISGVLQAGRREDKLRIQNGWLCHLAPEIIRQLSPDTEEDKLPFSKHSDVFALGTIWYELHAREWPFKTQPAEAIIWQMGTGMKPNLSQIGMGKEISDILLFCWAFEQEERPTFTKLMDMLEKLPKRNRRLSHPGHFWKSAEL
# [5] = target: T4, Ephrin type-A receptor 3 (Homo sapiens) (UniProt P29320); assay: Inhibition of EPHA3 (unknown origin) at 10 uM after 120 mins P33 radiolabeled kinase activity assay
# T4 sequence (whole entry): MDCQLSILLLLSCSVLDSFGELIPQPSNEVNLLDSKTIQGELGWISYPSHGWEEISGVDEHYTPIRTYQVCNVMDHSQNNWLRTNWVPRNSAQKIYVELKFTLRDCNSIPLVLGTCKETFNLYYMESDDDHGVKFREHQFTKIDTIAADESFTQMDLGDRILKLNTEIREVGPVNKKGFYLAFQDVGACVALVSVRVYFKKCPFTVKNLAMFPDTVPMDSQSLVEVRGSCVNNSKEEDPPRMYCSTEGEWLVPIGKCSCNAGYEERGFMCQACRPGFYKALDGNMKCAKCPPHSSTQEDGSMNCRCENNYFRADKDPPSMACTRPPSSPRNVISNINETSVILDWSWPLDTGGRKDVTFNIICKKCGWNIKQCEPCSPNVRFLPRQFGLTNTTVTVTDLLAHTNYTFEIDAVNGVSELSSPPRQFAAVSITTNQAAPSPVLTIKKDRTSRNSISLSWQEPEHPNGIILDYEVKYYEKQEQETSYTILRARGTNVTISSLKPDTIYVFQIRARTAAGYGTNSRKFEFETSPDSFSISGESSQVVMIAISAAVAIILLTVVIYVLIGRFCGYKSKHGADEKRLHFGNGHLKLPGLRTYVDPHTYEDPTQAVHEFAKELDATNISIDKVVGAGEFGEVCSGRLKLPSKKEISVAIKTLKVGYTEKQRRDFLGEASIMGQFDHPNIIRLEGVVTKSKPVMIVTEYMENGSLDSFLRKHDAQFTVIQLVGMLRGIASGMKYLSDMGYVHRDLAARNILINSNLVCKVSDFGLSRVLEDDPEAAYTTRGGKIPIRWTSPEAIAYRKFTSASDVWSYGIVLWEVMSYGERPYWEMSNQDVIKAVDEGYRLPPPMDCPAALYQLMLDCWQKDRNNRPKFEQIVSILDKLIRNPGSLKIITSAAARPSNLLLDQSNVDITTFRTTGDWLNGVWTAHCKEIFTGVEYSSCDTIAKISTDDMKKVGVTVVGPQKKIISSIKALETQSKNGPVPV
# Sequence of Myosin light chain kinase 2, skeletal/cardiac muscle (Homo sapiens) (Q9H1R3 whole entry): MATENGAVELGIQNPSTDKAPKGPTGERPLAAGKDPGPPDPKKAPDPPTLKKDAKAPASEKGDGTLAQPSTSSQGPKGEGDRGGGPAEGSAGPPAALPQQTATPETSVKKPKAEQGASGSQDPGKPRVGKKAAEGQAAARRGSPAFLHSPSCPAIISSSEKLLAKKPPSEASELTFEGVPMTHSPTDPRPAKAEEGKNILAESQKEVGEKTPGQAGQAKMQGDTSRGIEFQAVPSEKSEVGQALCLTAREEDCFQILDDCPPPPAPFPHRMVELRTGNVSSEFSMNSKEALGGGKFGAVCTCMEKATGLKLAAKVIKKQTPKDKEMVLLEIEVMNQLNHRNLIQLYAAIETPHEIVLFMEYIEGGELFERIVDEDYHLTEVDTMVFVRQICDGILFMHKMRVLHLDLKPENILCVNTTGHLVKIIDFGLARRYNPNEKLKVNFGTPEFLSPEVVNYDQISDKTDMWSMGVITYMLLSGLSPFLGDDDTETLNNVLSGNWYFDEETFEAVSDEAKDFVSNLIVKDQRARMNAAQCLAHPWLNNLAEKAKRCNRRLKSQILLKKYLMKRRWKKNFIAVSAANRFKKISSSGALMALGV
inhibition [1],inhibition [2],inhibition [3],inhibition [4],inhibition [5],Compound
12.1%,7.17%,-3.25%,3.38%,17.5%,COCCNC(=O)c1ccc2c(c1)nc(-c1cnc(-c3ccc(Cl)cc3)[nH]1)n2CCOC
30.2%,13.6%,7.45%,1.08%,57.4%,CS(=O)(=O)c1cccc(Nc2nccc(-c3sc(N4CCOCC4)nc3-c3cccc(NS(=O)(=O)c4c(F)cccc4F)c3)n2)c1
53.2%,7.33%,97.4%,3.41%,91.5%,CC(C)(C)c1cc(NC(=O)Nc2ccc(Oc3ccncc3)cc2)no1
